Assay results taken from patent US20090142363A1, “CYTOTOXIC T-CELL EPITOPE PEPTIDE AND USE THEREOF” (priority 2005, published 2009).
No end group written: not given here.

Tests used:
[1] = tested on: PBMCs of healthy adults reactive to the anti-HLA-A*24 antibody; test: Induction of specific CTLs from PBMCs, method for quantifying cells producing intracellular IFNγ; assay type: cell-based, human; set-up: key to specific CTL induction, cytokine quantification method: ∘: “open circle” indicates that the use of a candidate peptide enabled specific CTLs to be induced; x: “cross” indicates that specific CTLs was unable to be induced; details: for CD8-positive, IFNγ-positive cells in UR: HIV peptides added for restimulation as negative control; for peptide-specific cytokine production in PBMCs derived from ten people with HLA-A*24 molecule: summary of Table 2
Procedure: This induction method induces CTLs by adding peptides to culture media of PBMCs. Peptides are presented on antigen-presenting cells present among PBMCs, such as dendritic cells, B cells, macrophages, and certain types of T cells, whereby CTL precursor cells in PBMCs are stimulated to proliferate.
Peripheral blood collected from healthy adults that were reactive to the anti-HLA-A*24 antibody was centrifuged at 3,000 rpm for 5 to 10 minutes. The resulting supernatant plasma was collected. The non-plasma portion was processed according to a conventional method to isolate PBMCs. The characteristic of the present method is the addition of several % of plasma to an induction medium. In the present invention, a favorable result was obtained by adding 5% plasma. The medium is prepared by adding appropriate additives and antibiotics to a medium commonly used for cell culture. The CTL induction medium used in the present invention was RPMI1640 Hepes modify (Sigam) supplemented with 2-mercapotethanol, L-glutamine, and the antibiotics streptomycin and penicillin. In addition to these, insulin, transferrin, selenious acid, pyruvic acid, human serum albumin, solution of non-essential amino acids, and the like may be added. 1 to 3×10^6 PBMCs were suspended in 1 to 2.5 ml of the culture medium. A candidate peptide was added to the cells at a concentration of 1 to 20 μg/ml. The concentration of peptide can be altered depending on the solubility of the peptide. The peptide was added at 10 μg/ml. After two days, IL-2 was added at a final concentration of 20 to 100 U/ml. Round-bottomed culture dishes that allow the exchange of carbon dioxide gas are preferably used to co-culture PBMCs with peptides. In the context of the present invention, 14-ml round-bottomed polypropylene tubes (Becton Dikinson) or 96-well U-bottomed cell culture microtest plates (Becton Dikinson) were used. The adenovirus-specific CTLs were confirmed after about two and four weeks of culture. The cells were stimulated again with the peptide at 10 μg/ml after about two weeks of culture. When the induction of adenovirus-specific CTLs was confirmed, the cells were further stimulated with peptide-pulsed antigen-presenting cells to establish CTL lines.
Approximately 1/10 to all of the cells induced by the above-described method were transferred into 96-well U-bottomed cell culture microtest plates, and the peptide used for the induction was added thereto at a final concentration of 0.01 to 0.05 μg/ml. Then, an intracellular protein transport inhibitor (for example, brefeldin A, monensin, or such) was added, and the cells were cultured in a 5% CO2 incubator at 37° C. for 5 to 16 hours. After culture, the cells were washed, and phycoerythrin (PE)-labeled MHC-tetramer reagent and phycoerythrin-Cy5(PC5)-labeled CD8 antibody (Beckman Coulter) were added thereto. The resulting mixture was allowed to stand at room temperature for 15 to 30 minutes. After washing, the cells were fixed with 4% formaldehyde at 4° C. for 15 minutes and washed with an excess amount of washing solution. After membrane permeabilization treatment with 0.1% saponin, an FITC-labeled anti-IFNγ antibody (Beckman Coulter) was added, and reacted at room temperature for 15 to 30 minutes. After washing, the proportion of IFNγ-positive cells in T cells or MHC-tetramer reagent-positive cells was determined using a flow cytometer.
PBMCs derived from ten people with HLA-A*24 molecule were tested using 10 types of peptides. […] Thus, these six types of candidate epitope peptides serve as adenovirus-specific CTL epitope peptides. Since the adenovirus-specific CTL epitope peptides have the HLA-A*24-binding motif, they are likely to be HLA-A*2402-restricted epitope peptides, which are carried by 60% or more of the Japanese people. In the context of the results described above, MHC-tetramer reagents were synthesized using five types of epitope peptides, and their utility was tested.

[2] = tested on: peripheral blood / PBMCs / peptide-induced CTL lines of HLA-A*24 donors; test: Staining of peripheral blood, PBMCs or peptide-induced CTL lines with MHC-tetramer reagents; assay type: cell-based, human; details: for profile of tetramer-positive cells: donor ID*24-12, peptide-induced cells; for staining pattern at day 10 compared to Negative Tetramer reagent: donor ID*24-8, 10 days culture with peptide; for population of CD8-positive, tetramer-positive cells in the UR / population of CD8-negative, tetramer reagent-positive cells in the UL: peptide-induced CTL lines; for population of CD8-positive, tetramer-positive cells in the UR: donor ID*24-2 and *24-8, FIG. 5; for population of CD8-negative, tetramer reagent-positive cells in the UL: FIG. 5, VYS-Tet: donor ID*24-1, *24-3, *24-11, *24-12, *24-14
Procedure: MBL Co. where the present inventors are affiliated with has acquired exclusive patent licensing rights in Japan for MHC-tetramer reagents (U.S. Pat. No. 5,635,363; French Application No. FR9911133; and U.S. Pat. Nos. 5,723,584, 5,874,239, 5,932,433, and 6,265,552) from Beckman Coulter Co. Based on the patents, PE-labeled MHC-tetramer reagents were prepared using adenovirus-specific CTL epitope peptides and HLA-A*2402 molecules.
Adenovirus-specific CTLs quantification was carried out using MHC-tetramer reagents that was prepared using CTL epitope peptides of the present invention, with peripheral blood, PBMCs isolated from peripheral blood, CTL lines induced using CTL epitope peptides as samples. Examples of quantification using PE-labeled MHC-tetramer reagents are described below. Labelling dyes may be used in an appropriate combination depending on the type of flow cytometer to be used, and is not limited to the examples described below.
Ten μl of a PE-labeled MHC-tetramer reagent, 20 μl of an FITC-labeled antibody for T cell (for example, CD8, CD4, or CD3), and such were added to 200 μl of collected peripheral blood. A CD45 antibody labeled with PC5 or such may also be added to eliminate nonspecific fluorescence due to contaminated erythrocytes. After gentle mixing, the mixture was allowed to stand at room temperature for 30 minutes. OptiLyse B was added, and erythrolysis and fixation was carried out according to the manufacturer's protocol. Two ml of PBS was added, stirred, and the cells were centrifuged at 400×g for 5 minutes. After the supernatant was removed by aspiration, the cells were resuspended in 500 μl of PBS and analyzed using a flow cytometer within 24 hours.
Ten μl of a PE-labeled MHC-tetramer reagent, 20 μl of an FITC-labeled T cell surface antibody (for example, CD8, CD4, or CD3), and such were added to an appropriate amount of PBMCs (10^5 to 10^6 cells) or a CTL line induced by use of CTL epitope peptides. A CD45 antibody labeled with PC5 or such may also be added to eliminate nonspecific fluorescence due to contaminated erythrocytes. After gentle mixing, the cells were allowed to stand at room temperature for 30 minutes. Three ml of PBS was added, stirred, and the cells were centrifuged at 400×g for 5 minutes. After the supernatant was removed by aspiration, the cells were resuspended in 500 μl of PBS. When a CTL line is used, 7-AAD Viability Dye (Non-viable cell detection reagent; MBL Co.) may be added to eliminate nonspecific fluorescence caused by non-viable cells. The cells were analyzed using a flow cytometer within 24 hours.
The results of staining obtained using the five types of MHC-tetramer reagents used to prepare the peptide-induced CTL lines are shown in FIG. 5.

[3] = PBMCs from donor ID*24-14 after 24 days of stimulation with LYA

Substance	specific CTL induction, cytokine quantification method ([1]; donor ID *24-1)	specific CTL induction, cytokine quantification method ([1]; donor ID *24-2)	specific CTL induction, cytokine quantification method ([1]; donor ID *24-3)	specific CTL induction, cytokine quantification method ([1]; donor ID *24-5)	specific CTL induction, cytokine quantification method ([1]; donor ID *24-8)	specific CTL induction, cytokine quantification method ([1]; donor ID *24-10)	specific CTL induction, cytokine quantification method ([1]; donor ID *24-11)	specific CTL induction, cytokine quantification method ([1]; donor ID *24-12)	specific CTL induction, cytokine quantification method ([1]; donor ID *24-13)	specific CTL induction, cytokine quantification method ([1]; donor ID *24-14)	further results
RYLRDQQLL [HIV peptide, reference compound]	–	–	–	–	–	–	–	–	–	–	CD8-positive, IFNγ-positive cells in UR ([1]; donor *24-8): 0.62%; CD8-positive, IFNγ-positive cells in UR ([1]; donor *24-12): 0.18%
HLA-A*2402 LYSNVALYL (Seq Id No: 5) Tetramer Reagent [LYS-Tet]	–	–	–	–	–	–	–	–	–	–	profile of tetramer-positive cells [2]: no relevant profile
SYQLLLDSL	x	x	x	x	x	x	x	x	x	x	–
HLA-A*2402 DYLSAANML (Seq Id No: 1) Tetramer Reagent [DYL-Tet]	–	–	–	–	–	–	–	–	–	–	profile of tetramer-positive cells [2]: no relevant profile
HLA-A*2402 TYFNLGNKF (Seq Id No: 4) Tetramer Reagent [TYF-Tet]	–	–	–	–	–	–	–	–	–	–	staining pattern at day 10 compared to Negative Tetramer reagent [2]: clear CD8-positive, MHC-tetramer-positive pattern; population of CD8-positive, tetramer-positive cells in the UR [2]: clearly detected
HLA-A*2402 LYANSAHAL (Seq Id No: 2) Tetramer Reagent [LYA-Tet]	–	–	–	–	–	–	–	–	–	–	CD3-positive, LYA-Tet-positive cells [2, 3]: 1.13%; CD4-positive, LYA-Tet-positive cells [2, 3]: 0.09%; CD8-positive, LYA-Tet-positive cells [2, 3]: 0.18%; population of CD8-negative, tetramer reagent-positive cells in the UL [2]: detected
HLA-A*2402 VYSGSIPYL (SEQ ID NO: 3) Tetramer Reagent [VYS-Tet]	–	–	–	–	–	–	–	–	–	–	staining pattern at day 10 compared to Negative Tetramer reagent [2]: clear CD8-positive, MHC-tetramer-positive pattern; population of CD8-negative, tetramer reagent-positive cells in the UL [2]: detected; population of CD8-positive, tetramer-positive cells in the UR [2]: clearly detected
QYDPVAALF [CMV pp65, reference compound]	–	–	–	–	–	–	–	–	–	–	specific CTLs (CD8-positive MHC-tetramer reagent-positive cells, UR) ([2]; donor ID*24-2, 13 days stimulation with the peptide, then HIV peptide added, % of whole viable cells): 28.8%
NYIGFRDNF	x	x	x	x	x	x	x	x	x	x	–
GYKDRMYSF	x	x	x	x	∘	x	x	x	x	x	specific CTL induction confirmed by CD8-positive, IFNγ-positive cells versus HIV peptide ([1]; donor ID*24-8, FIG. 3a-d): induced specific CTLs; peptide-specific cytokine production in PBMCs derived from ten people with HLA-A*24 molecule [1]: induce cytokine production in a peptide-specific manner
NYNIGYQGF	x	x	x	x	x	x	x	x	x	x	–
KYTPSNVTL	x	x	x	x	x	x	x	x	x	x	–
DYLSAANML	∘	∘	x	x	x	∘	x	∘	x	x	CD8-positive, IFNγ-positive (producing) cells in UR ([1]; donor *24-12, restimulation with the same peptide as used in the induction, % in PBMCs): 0.49%; specific CTL induction confirmed by CD8-positive, IFNγ-positive cells versus HIV peptide ([1]; donor ID*24-12, FIG. 3e-h): specific CTL induction was confirmed; peptide-specific cytokine production in PBMCs derived from ten people with HLA-A*24 molecule [1]: induce cytokine production in a peptide-specific manner; number of persons with peptide-specific IFNγ production / CTL induction ([1]; ten persons tested): four of the ten persons
